Source: US20090142281A1, “Composition Comprising A Coupled Enzyme System” (priority 2005, published 2009)
Read-outs that look alike come from different tables or passages of the source.

What was measured:
Format in all cases: biochemical
[1] = In gel overlay activity assay (PMS/NBT) using sorbitol as substrate; conditions: native gel
From the text: b) In gel overlay activity assay (PMS/NBT) using sorbitol as substrate.
The cell lysates were fractionated on a native gel that was further tested in an in-gel overlay activity assay using sorbitol as the substrate and an assay based on the PMS mediated reduction of NBT. […] The PMS/NBT is a diagnostic assay for flavoproteins where PMS=phenazine methosulfate is a redox mediator which is reduced by reduced FAD.

[2] = tested on: hydrogen peroxide production; test: Synergy between the two enzymes: initial velocity of H2O2 production in 300 uL ABTS assay; conditions: further enzyme at 1× to 3000× excess over polyol oxidase; especially at dosages greater than 1×
From the text: In the example below the amounts of enzyme are given as unit amounts.
A unit of HOX is the amount of enzyme that produced 1 umol H202/min when substrates are in excess.
A unit of GOX is the amount of enzyme that produced 1 umol H202/min when substrates are in excess.
A unit of SOX is the amount of enzyme that produced 1 umol H202/min when substrates are in excess.
The generated sugar will be the limiting factor for the secondary enzyme. As noted above the activity is given as a percentage value of SOX catalysing D-sorbitol when both D-sorbitol and oxygen is in excess.
Initial velocities were measured over 5 minutes in 300 uL ABTS assay (as described previously). The production of rate of hydrogen peroxide production was extrapolated from a standard curve. The measured activity, shown in FIG. 3 and FIG. 4 are given as a percentage value. 100% is defined as the rate of hydrogen peroxide production by sorbitol oxidase alone, when the substrates D-sorbitol and oxygen is in excess (Linear velocity curves)

Sorbitol oxidase [3] = molecular target: T1, Sorbitol oxidase (Streptomyces coelicolor, UniProt Q9ZBU1); test: Relative activity of sorbitol oxidase on xylitol and sorbitol (ABTS assay); conditions: rate of H2O2 production, substrate in excess, same amount of enzyme
T1 construct: made in house; host or cells: Streptomyces lividans g3s3 (vector pKB105, PSMM-SOX)
T1 sequence (Q9ZBU1 other isoform, or with tags, fused parts or gaps): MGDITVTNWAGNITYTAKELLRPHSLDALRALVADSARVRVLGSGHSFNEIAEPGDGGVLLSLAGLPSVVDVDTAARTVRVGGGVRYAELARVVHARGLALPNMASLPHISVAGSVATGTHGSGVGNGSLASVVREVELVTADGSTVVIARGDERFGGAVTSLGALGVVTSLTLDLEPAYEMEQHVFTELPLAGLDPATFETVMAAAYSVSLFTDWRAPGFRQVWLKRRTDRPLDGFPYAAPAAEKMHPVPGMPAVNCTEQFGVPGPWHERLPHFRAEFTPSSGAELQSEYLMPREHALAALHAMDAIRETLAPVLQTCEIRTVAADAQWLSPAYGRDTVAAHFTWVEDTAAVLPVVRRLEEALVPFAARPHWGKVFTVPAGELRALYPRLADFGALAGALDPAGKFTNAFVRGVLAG
Method: The commonly used horse radish peroxidase dye substrate ABTS was incorporated into an assay, measuring the production of H2O2 produced by HOX or GOX respectively. ABTS serves as a chromogenic substrate for peroxidase. Peroxidase in combination with H2O2 facilitates the electron transport from the chromogenic dye, which is oxidised to an intensely green/blue compound.
An assay mixture contained 266 μl sorbitol (Sigma P-5504, 0.055 M in 0.1 M sodium phosphate buffer, pH 6.3), (or alternative substrate, e.g. xylitol), 12 μl 2,2′-Azino-bis(3-ethylbenzothiozoline-6-Sulfonic acid) (ABTS) (Sigma A-9941, 5 mg/ml aqueous solution), 12 μl peroxidase (POD) (Sigma P-6782, 0.1 mg/ml in 0.1 M sodium phosphate buffer, pH 6.3) and 10 μl enzyme (SOX or HOX) aqueous solution.
The assay is performed at 25° C.
The incubation was started by the addition of glucose. The absorbance was monitored at 405 nm in an ELISA reader. A standard curve, based on varying concentrations of H2O2, was used for calculation of enzyme activity according to the definition above.
The purpose was to measure the difference in activity of sorbitol oxidase on D-sorbitol and D-xylitol. The ABTS assay was used as described previously to measure the rate of H2O2 production when both D-sorbitol and D-xylitol was in excess. The same amount of enzyme, as prepared in the previous examples was used in both cases. […]

Sorbitol oxidase [4] = molecular target: T1, Sorbitol oxidase
Method: Sorbitol oxidase obtained using the methods described in Example 3-4, was tested for finding its activity with various polyol substrates. All substrates used in the assay were 55 mM in 100 mM phosphate buffer pH 7.0 at 25° C. The relative activity using sorbitol as (++++++=100%) is shown below in Table 1. In addition to these substrates, it is contemplated that other substrates, including, but not limited to glycerol, will find use in the present invention.

[5] = substrate 55 mM in 100 mM phosphate buffer pH 7.0 at 25° C., relative to sorbitol

Molecule | Relative activity% (Sorbitol oxidase [3]) [%] | Relative Activity (+, 0) (Sorbitol oxidase [4]; [5]) | Relative Activity (+, 0) (Sorbitol oxidase [4]; pH 7) | further results
glucose oxidase [reference compound] |  |  |  | activity towards sorbitol (stained band) [1]: not active towards sorbitol; synergy in initial velocity of H2O2 production (FIG. 4) [2]: dramatic synergy
OC[C@@H](O)[C@@H](O)[C@H](O)[C@@H](O)CO [D-Sorbitol] | 100 | + + + + + + |  | 
OC[C@@H](O)[C@H](O)[C@@H](O)CO [D-Xylitol] | 47.6 |  | + + + + | 
OCCO [Ethylene glycol] |  |  | 0 | 
OC[C@@H](O)[C@@H](O)[C@H](O)[C@H](O)CO [D-Mannitol] |  | + + + |  | 
CC(O)CO (stereo not drawn) [Propylene glycol] |  | 0 |  | 
